Data from the supplement of paper PMC11061612.

Tests used:
Assay in all cases: Bliss excess, mean over the matrix (fraction); higher = more synergy
HCC38 (Breast Carcinoma) = test system: HCC38 (Breast Carcinoma)
Method in brief: (§1)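 Bliss excess equals the observed combination effect minus the expected value EA + EB − EA·EB, where EA and EB are the effects of each agent alone. Combination Emax is the second-highest inhibition within the matrix. Inhibition was scaled from CellTiter-Glo 2.0 luminescence, with 0 set by vehicle wells and 1 by blank wells, after 72 hours of two-drug dosing of cells plated in 1536-well plates.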

[1] = test system: ETK-1 (Biliary Tract Carcinoma)
Method in brief: as §1

MCF7 (Breast Carcinoma) = test system: MCF7 (Breast Carcinoma)
Method in brief: as §1

[2] = test system: EKVX (Non-Small Cell Lung Carcinoma)
Method in brief: as §1

[3] = test system: NOMO-1 (Acute Myeloid Leukemia)
Method in brief: as §1

SK-MEL-1 (Melanoma) = test system: SK-MEL-1 (Melanoma)
Method in brief: as §1

[4] = test system: NCI-H1688 (Small Cell Lung Carcinoma)
Method in brief: as §1

MSTO-211H (Mesothelioma) = test system: MSTO-211H (Mesothelioma)
Method in brief: as §1

CS1 (Chondrosarcoma) = test system: CS1 (Chondrosarcoma)
Method in brief: as §1

[5] = test system: SNG-M (Endometrial Carcinoma)
Method in brief: as §1

[6] = test system: D-283MED (Other Solid Carcinomas)
Method in brief: as §1

[7] = test system: MEG-01 (Chronic Myelogenous Leukemia)
Method in brief: as §1

[8] = test system: JHH-6 (Hepatocellular Carcinoma)
Method in brief: as §1

[9] = test system: SK-LMS-1 (Other Solid Carcinomas)
Method in brief: as §1

[10] = test system: PA-TU-8902 (Pancreatic Carcinoma)
Method in brief: as §1

HuO9 (Osteosarcoma) = test system: HuO9 (Osteosarcoma)
Method in brief: as §1

[11] = test system: KG-1 (Acute Myeloid Leukemia)
Method in brief: as §1

[12] = test system: HOP-92 (Non-Small Cell Lung Carcinoma)
Method in brief: as §1

[13] = test system: MES-SA (Other Solid Carcinomas)
Method in brief: as §1

[14] = test system: EFM-192A (Breast Carcinoma)
Method in brief: as §1

Row | Compound | Bliss excess (HCC38 (Breast Carcinoma)) | Bliss excess [1] | Bliss excess (MCF7 (Breast Carcinoma)) | Bliss excess [2] | Bliss excess [3] | Bliss excess (SK-MEL-1 (Melanoma)) | Bliss excess [4] | Bliss excess (MSTO-211H (Mesothelioma)) | Bliss excess (CS1 (Chondrosarcoma)) | Bliss excess [5] | Bliss excess [6] | Bliss excess [7] | Bliss excess [8] | Bliss excess [9] | Bliss excess [10] | Bliss excess (HuO9 (Osteosarcoma)) | Bliss excess [11] | Bliss excess [12] | Bliss excess [13] | Bliss excess [14]
1 | CCc1c2c(nc3ccc(O)cc13)-c1cc3c(c(=O)n1C2)COC(=O)[C@]3(O)CC [SN-38] + O=C(c1cc(Cc2n[nH]c(=O)c3ccccc23)ccc1F)N1CCN(C(=O)C2CC2)CC1 [Olaparib] (first compound max 0.3 µM, 7x7, partner max 10 µM) | 0.0331 | 0.0825 | 0.0115 | 0.0027 | 0.0544 | 0.0387 | 0.0337 | 0.0376 | 0.0141 | 0.0565 | 0.0174 | 0.026 | 0.032 | 0.0057 | 0.086 | 0.0687 | – | – | – | –
2 | CN(CCO)CC[C@H](CSc1ccccc1)Nc1ccc(S(=O)(=O)NC(=O)c2ccc(N3CCC([C@@H](O)c4ccccc4-c4ccc(Cl)cc4)CC3)cc2)cc1S(=O)(=O)C(F)(F)F [AZD4320] + CCN(CCO)CCCOc1ccc2c(Nc3cc(CC(=O)Nc4cccc(F)c4)[nH]n3)ncnc2c1 [AZD2811] (first compound max 1 µM, 7x7, partner max 1 µM) | 0.044 | -0.0297 | 0.0189 | -0.0476 | 0.208 | -0.0353 | 0.0729 | 0.0471 | 0.0355 | 0.0407 | 0.0522 | -0.0205 | 0.0044 | 0.0619 | -0.0403 | 0.0376 | 0.0803 | 0.0573 | 0.0657 | –
3 | Cn1cnc2c(F)c(Nc3ccc(Br)cc3Cl)c(C(=O)NOCCO)cc21 [Selumetinib] + C=CCn1c(=O)c2cnc(Nc3ccc(N4CCN(C)CC4)cc3)nc2n1-c1cccc(C(C)(C)O)n1 [AZD1775] (first compound max 10 µM, partner max 1 µM) | -0.0768 | -0.0128 | -0.079 | – | -0.0509 | 0.0121 | -0.115 | -0.0323 | -0.0195 | -0.0444 | -0.0295 | 0.0437 | -0.0963 | 0.0059 | 0.0655 | -0.0824 | 0.0445 | -0.056 | -0.0289 | -0.0509
4 | NC1(C(=O)N[C@@H](CCO)c2ccc(Cl)cc2)CCN(c2ncnc3[nH]ccc23)CC1 [Capivasertib] + CC(C)n1c(=O)n(C)c2cnc3cc(F)c(-c4ccc(OCCCN5CCCCC5)nc4)cc3c21 [AZD1390] (first compound max 10 µM, 7x7, partner max 0.3 µM) | -0.0314 | -0.0189 | -0.11 | – | -0.0537 | -0.0207 | -0.044 | -0.0905 | -0.0698 | -0.0484 | -0.0009 | -0.0245 | -0.0908 | -0.045 | -0.0859 | -0.0009 | -0.0386 | -0.0238 | -0.0275 | -0.062
5 | C[C@@H](c1ccc2nccn2c1)n1nnc2ncc(-c3cnn(C)c3)nc21 [Savolitinib] + CC1(C)CCC(CN2CCN(c3ccc(C(=O)NS(=O)(=O)c4ccc(NCC5CCOCC5)c([N+](=O)[O-])c4)c(Oc4cnc5[nH]ccc5c4)c3)CC2)=C(c2ccc(Cl)cc2)C1 [Venetoclax] (first compound max 1 µM, 7x7, partner max 1 µM) | -0.0111 | -0.0777 | -0.042 | – | -0.0561 | -0.0144 | -0.047 | -0.0501 | -0.0056 | -0.0421 | -0.0144 | -0.0223 | -0.0918 | 0.0121 | -0.11 | -0.0531 | -0.015 | -0.0181 | -0.0736 | -0.0484
6 | CC(=O)c1c(C)c2cnc(Nc3ccc(N4CCNCC4)cn3)nc2n(C2CCCC2)c1=O [Palbociclib] + Cc1c2c(nn1C)CSCc1cc(n(C)n1)CSc1cc(c3ccccc3c1)OCCCc1c(C(=O)O)n(C)c3c-2c(Cl)ccc13 [AZD5991] (first compound max 10 µM, 7x7, partner max 1 µM) | -0.0244 | -0.0808 | -0.103 | – | -0.0915 | -0.0014 | 0.0284 | -0.0265 | -0.035 | -0.0233 | 0.0099 | 0.0338 | -0.0212 | -0.0081 | -0.0469 | 0.0088 | -0.0169 | 0.013 | -0.05 | -0.119
7 | NC1(C(=O)N[C@@H](CCO)c2ccc(Cl)cc2)CCN(c2ncnc3[nH]ccc23)CC1 [Capivasertib] + C[C@@H]1COCCN1C2=NC(=NC(=C2)C3(CC3)[S@](=N)(=O)C)C4=C5C=CNC5=NC=C4 [AZD6738] (first compound max 10 µM, 7x7, partner max 10 µM) | -0.0366 | -0.066 | -0.0707 | – | -0.0579 | 0.0147 | -0.0062 | -0.0088 | -0.0517 | -0.0984 | -0.0048 | -0.0464 | -0.0229 | 0.0094 | 0.0247 | -0.0535 | -0.026 | -0.0518 | -0.0719 | -0.0546
8 | NC1(C(=O)N[C@@H](CCO)c2ccc(Cl)cc2)CCN(c2ncnc3[nH]ccc23)CC1 [Capivasertib] + COc1nnc2ccc(N3CCC(c4ccc(OCCN5CCN(C)C(=O)[C@H]5C)cc4)CC3)nn12 [AZD5153] (first compound max 10 µM, 7x7, partner max 1 µM) | -0.022 | 0.0486 | -0.0413 | – | -0.0061 | 0.0315 | 0.001 | 0.0056 | 0.0057 | 0.0787 | -0.0185 | -0.0355 | -0.0365 | 0.0014 | -0.0841 | -0.0142 | -0.0162 | -0.0027 | 0.0276 | 0.0866
9 | NC1(C(=O)N[C@@H](CCO)c2ccc(Cl)cc2)CCN(c2ncnc3[nH]ccc23)CC1 [Capivasertib] + Cn1cnc2c(F)c(Nc3ccc(Br)cc3Cl)c(C(=O)NOCCO)cc21 [Selumetinib] (first compound max 10 µM, 7x7, partner max 10 µM) | 0.0116 | 0.0555 | -0.0332 | – | 0.0099 | 0.0465 | 0.0549 | 0.0663 | 0.0373 | 0.0648 | 0.0855 | 0.0548 | -0.0262 | 0.0883 | 0.0181 | -0.0116 | -0.0045 | 0.003 | -0.0017 | -0.0326
10 | CS(=O)(=O)CCNCc1ccc(-c2ccc3ncnc(Nc4ccc(OCc5cccc(F)c5)c(Cl)c4)c3c2)o1 [Lapatinib] + C[C@@H](Oc1cc(-c2cnn(C3CCNCC3)c2)cnc1N)c1c(Cl)ccc(F)c1Cl [Crizotinib] (first compound max 10 µM, 7x7, partner max 10 µM) | -0.0049 | -0.0596 | -0.0386 | – | -0.0755 | -0.0827 | -0.0764 | -0.0667 | -0.0093 | -0.0413 | -0.0496 | -0.0083 | -0.0262 | -0.0611 | 0.0068 | -0.069 | -0.0028 | -0.0051 | -0.0302 | 0.0063
11 | Cn1cnc2c(F)c(Nc3ccc(Br)cc3Cl)c(C(=O)NOCCO)cc21 [Selumetinib] + C[C@@H]1COCCN1C2=NC(=NC(=C2)C3(CC3)[S@](=N)(=O)C)C4=C5C=CNC5=NC=C4 [AZD6738] (first compound max 10 µM, 7x7, partner max 10 µM) | -0.0706 | -0.036 | -0.0558 | – | -0.0299 | -0.0312 | -0.0217 | -0.0453 | -0.0706 | -0.0561 | -0.0564 | 0.0135 | -0.0064 | 0.0453 | 0.0428 | 0.0042 | 0.0218 | -0.0029 | 0.0021 | -0.0365
12 | COc1nnc2ccc(N3CCC(c4ccc(OCCN5CCN(C)C(=O)[C@H]5C)cc4)CC3)nn12 [AZD5153] + C=CCn1c(=O)c2cnc(Nc3ccc(N4CCN(C)CC4)cc3)nc2n1-c1cccc(C(C)(C)O)n1 [AZD1775] (first compound max 1 µM, partner max 1 µM) | -0.107 | -0.0736 | -0.0356 | – | -0.0364 | -0.0312 | -0.0604 | -0.121 | -0.0172 | 0.0898 | -0.034 | -0.0693 | -0.048 | -0.0353 | 0.0421 | -0.035 | 0.004 | -0.0301 | -0.0334 | -0.0138
13 | COc1nnc2ccc(N3CCC(c4ccc(OCCN5CCN(C)C(=O)[C@H]5C)cc4)CC3)nn12 [AZD5153] + CC1(C)CCC(CN2CCN(c3ccc(C(=O)NS(=O)(=O)c4ccc(NCC5CCOCC5)c([N+](=O)[O-])c4)c(Oc4cnc5[nH]ccc5c4)c3)CC2)=C(c2ccc(Cl)cc2)C1 [Venetoclax] (first compound max 1 µM, 7x7, partner max 1 µM) | -0.0324 | -0.11 | -0.0183 | – | 0.0051 | 0.0777 | -0.003 | -0.111 | -0.054 | -0.0875 | -0.0343 | -0.0627 | -0.0443 | -0.0641 | -0.0908 | -0.0198 | 0.163 | -0.0242 | -0.06 | -0.0257
14 | COc1nnc2ccc(N3CCC(c4ccc(OCCN5CCN(C)C(=O)[C@H]5C)cc4)CC3)nn12 [AZD5153] + Cn1cnc2c(F)c(Nc3ccc(Br)cc3Cl)c(C(=O)NOCCO)cc21 [Selumetinib] (first compound max 1 µM, 7x7, partner max 10 µM) | -0.0392 | -0.0451 | -0.0307 | – | 0.0443 | 0.0933 | -0.0216 | 0.007 | 0.01 | 0.0042 | -0.0211 | -0.0222 | 0.0053 | 0.0383 | -0.0869 | 0.0052 | 0.024 | 0.0604 | 0.0199 | -0.0096
15 | COc1nnc2ccc(N3CCC(c4ccc(OCCN5CCN(C)C(=O)[C@H]5C)cc4)CC3)nn12 [AZD5153] + C[C@@H]1COCCN1C2=NC(=NC(=C2)C3(CC3)[S@](=N)(=O)C)C4=C5C=CNC5=NC=C4 [AZD6738] (first compound max 1 µM, 7x7, partner max 10 µM) | -0.0182 | 0.0107 | -0.0228 | – | -0.0324 | 0.0103 | 0.0719 | -0.0354 | -0.0559 | -0.0014 | -0.0087 | -0.0595 | -0.0111 | -0.0163 | 0.0565 | 0.031 | 0.0159 | 0.0246 | 0.0781 | 0.0551
